# Tests used:
# REDD1 = REDD1 expression in mouse epidermis and s.c. adipose (Q-PCR, Western blot, immunostaining); type: in vivo
# Procedure: FIG. 16. […] F1 C57B1×129 mice were treated topically with solvent (control), FA ((2 μg/mouse×8 hrs) or pretreated with Rapamycin (500 nmol/mouse×6 hrs) followed by FA treatment for 8 h. RNA and whole cell proteins were extracted from epidermis isolated as described in Matherials and Methods. A. Q-PCR analysis of REDD1 expression. The results were normalized to the expression of the housekeeping Rp127 gene, and presented as fold of change compared to control animals. The means+/−SD calculated for three individual RNA samples/condition. a—Statistically significant difference (P<0.05) compared to control; b—Statistically significant differences (P<0.05) compared to FA treatment. B. Western blot analysis of whole cell proteins in epidermis. Membranes were probed with anti-GAPDH antibodies to verify equal protein loading and transfer. C. Ear edema test. Ear edema was induced by croton oil (CO, 20 ul/ear) as in Materials and Methods. Solvent (20 ul/ear) or FA (1 ug/ear) were applied 1 h before CO after 6 hrs of pre-treatment with rapamycin (200 ng/ear) or solvent. Mice were sacrificed and four-millimeter ear punches were weighed 9 h after CO application to assess swelling. Ear punch weight results are presented as % to control (only solvent treatment) ear weight The means+/−SD were calculated for six individual ear punches/condition in one representative experiment (out of three experiments). a—Statistically significant differences (P<0.05) compared to control treatment; b—Statistically significant differences (P<0.05) compared to CO or CO+rapa treatment.
# Seven-week-old females in the telogen stage of the hair cycle were shaved and treated 3 days later. Glucocorticoid FA was applied topically (2 μg/animal) in 200 μl acetone to the back skin once or up to four times every third day as described (Chebotaev et al, 2007c). Control animals were treated with acetone only. Animals were injected i.p. with bromodeoxyuridine (BrdU, Sigma-Aldrich, 50 μg/g of animal weight) 1 h before skin was harvested. Epidermis and s.c. fat were isolated from the murine dorsal skin mechanically by scraping (Chebotaev et al, 2007c).
# Sections of formalin-fixed, paraffin-embedded skin and ORCs were stained with hematoxylin and eosin (H&E), Masson's trichrome to evaluate the effect on dermis and collagen fibers (Sheehan & Hrapchack, 1980), and with antibodies against BrdU (BD Biosciences, San Jose, Calif., USA), keratins 1, 5, and 10, loricrin (Covance, Princeton, N.J.), phospho-mTORSer2448 (Cell Signaling Technology, Inc., Danvers, Mass., USA), REDD1 (Proteintech Group, Inc, Chicago, Ill.), p63 (eBioscience, San Diego, Calif., USA), and CD34 (Abcam, Cambridge, Mass., USA). […]
# [1] = tested on: CD34+ follicular SCs and p63-positive progenitors; assay: CD34+ follicular epithelial stem cells and p63+ progenitors in mouse skin (immunostaining); type: in vivo; conditions: chronic FA treatment
# Text: Sections of formalin-fixed, paraffin-embedded skin and ORCs were stained with hematoxylin and eosin (H&E), Masson's trichrome to evaluate the effect on dermis and collagen fibers (Sheehan & Hrapchack, 1980), and with antibodies against BrdU (BD Biosciences, San Jose, Calif., USA), keratins 1, 5, and 10, loricrin (Covance, Princeton, N.J.), phospho-mTORSer2448 (Cell Signaling Technology, Inc., Danvers, Mass., USA), REDD1 (Proteintech Group, Inc, Chicago, Ill.), p63 (eBioscience, San Diego, Calif., USA), and CD34 (Abcam, Cambridge, Mass., USA).
# The numbers of BrdU+, p63+, and total number of basal keratinocytes were evaluated in 10 fields of view in each skin/ORC sample under the microscope. Number of BrdU+ and p63+ cells is presented as percent of total number of basal keratinocytes. The number of CD34+ hair follicles among 10 randomly selected hair follicles per skin sample was evaluated under the microscope.
structure (smiles),measurement,setting,value
"CC1(C)O[C@@H]2C[C@H]3[C@@H]4C[C@H](F)C5=CC(=O)C=C[C@]5(C)[C@@]4(F)[C@@H](O)C[C@]3(C)[C@]2(C(=O)CO)O1 [FA, fluocinolone acetonide]",REDD1 expression in s.c. adipose versus epidermis,"REDD1; B6D2 mice, 24 h after FA, Q-PCR",equally activated in s.c. adipose and epidermis
same,REDD1 expression in skin,"REDD1; F1 C57B1×129 mice, topical FA 2 ug/animal×24 h",strongly induced
same,REDD1 mRNA increase,"REDD1; epidermis of B6D2 mice, 4-24 h after the first FA application, Q-PCR",~4.5 fold
same,REDD1 protein expression,"REDD1; skin of B6D2 mice, Western blot and immunostaining, single and chronic FA",induced REDD1 expression as early as 4-8 h after first application
same,decrease in number of p63+ basal keratinocytes,[1]; REDD1 KO mice,20%
same,hair follicles CD34 positive,[1]; REDD1 KO mice,40%
same,decrease in number of p63-positive progenitors in the basal layer of epidermis,[1]; wild-type mice,~40%
same,hair follicles CD34 positive,[1]; wild-type mice,5%

# — patent publication US9980976B2, “Use of REDD1 inhibitors to dissociate therapeutic and adverse atrophogenic effects of glucocorticoid receptor agonists” (Northwestern University, priority 2015, dated 2018)
